Results taken from patent US20240188566A1, “Biocidal Composition and Method” (ARXADA, LLC, priority 2021, published 2024).
Marks after values point to notes of the source that are not given here.

Columns and labels:
Type in all cases: cell-based
[1] = test system: Pseudomonas aeruginosa, Escherichia coli, Enterobacter cloacae, Acinetobacter calcoaceticus; assay: In-can challenge test, modified ASTM D2574-97 (Table 1)
Method: (§1) Various formulations were made in accordance with the present disclosure and tested for performance. In one challenge test, the efficacy of dicyandiamide as an adjuvant for BIT was evaluated using modified ASTM D2574-97 “Standard Test Method for Resistance of Emulsion Paints in the Container to Attack by Microorganisms” with higher inoculation volumes and frequency. A standard consortium of four (4) bacterial populations: Pseudomonas aeruginosa, Escherichia coli, Enterobacter cloacae, Acinetobacter calcoaceticus was used to inoculate three (3) different samples at ten percent (10%), five percent (5%), or two and a half percent (2.5%) of the sample size. At twenty-four (24) hours and seventy-two (72) hours after each inoculation, a portion of each sample was streaked on tryptic soy agar. A dilution plate count was performed at the last seventy-two (72) hour time point.
(§2) Example data provided in Tables 1, 2 and 3 should be understood as indicating the degree of microbial growth observed for a given data point unless otherwise indicated. In particular, each plate is ranked from 0 through 5c (i.e., one of 0, 1, 2, 3, 4, 5, or 5c) according to the degree of observed microbial growth, where: a “0” ranking indicates no growth; a “1” ranking indicates one (1) through five (5) observed colony forming unit (cfu), i.e., the plate was very lightly contaminated; a “2” ranking indicates six (6) through fifteen (15) cfu, i.e., the plate was lightly contaminated; a “3” ranking indicates sixteen (16) through thirty (30) cfu, i.e., the plate was moderately contaminated; a “4” ranking indicates thirty-one (31) through forty-five (45) cfu, i.e., the plate was heavily contaminated; a “5” ranking indicates greater than (45) cfu, i.e., the plate was severely contaminated; and a “5c” ranking indicates confluent growth, i.e., the plate was very severely contaminated. Thus, for instance, Table 1, Challenge 1 at 24 h for BIT 50 ppm has a value of 5 indicating greater than forty-five (45) cfu were observed. As another example for illustration, Table 1, Challenge 1 at 24 h for dicyandiamide 5,000 ppm+BIT 50 ppm has a value of 1 indicating one (1) through five (5) cfu was observed.

[2] = test system: Pseudomonas aeruginosa, Escherichia coli, Enterobacter cloacae, Acinetobacter calcoaceticus; assay: Repeat in-can challenge test, same conditions (Table 2); conditions: Dicyandiamide 5,000 ppm
Method: as §1, §2

[3] = test system: microbial growth; assay: In-can challenge test of dicyandiamide as adjuvant for MIT (Table 3); conditions: for degree of microbial growth (plate ranking) / passing result of challenge test: Dicy 0
Description: However, using a combination of MIT and dicyandiamide can allow for effective microbial control at MIT concentrations as low as 20 ppm.
as §2

## N#CN=C(N)N [Dicyandiamide, 2-cyanoguanidine]
[1]; Dicyandiamide 5,000 ppm, Challenge 1 (10%), 24 h
  degree of microbial growth (plate ranking): 5c
[1]; Dicyandiamide 5,000 ppm, Challenge 1 (10%), 72 h
  degree of microbial growth (plate ranking): 5c
[1]; Dicyandiamide 5,000 ppm, Challenge 2 (5%), 72 h
  degree of microbial growth (plate ranking): 5c
[1]; Dicyandiamide 5,000 ppm, Challenge 3 (2.5%), 24 h
  degree of microbial growth (plate ranking): 5c
[1]; Dicyandiamide 5,000 ppm, Challenge 3 (2.5%), 72 h
  dilution plate count: 8.0 × 10^6
[1]; Dicyandiamide 10,000 ppm, Challenge 1 (10%), 24 h
  degree of microbial growth (plate ranking): 5c
[1]; Dicyandiamide 10,000 ppm, Challenge 1 (10%), 72 h
  degree of microbial growth (plate ranking): 1 (a “1” ranking indicates one (1) through five (5) observed colony forming unit (cfu), i.e., the plate was very lightly contaminated)
[1]; Dicyandiamide 10,000 ppm, Challenge 2 (5%), 72 h
  degree of microbial growth (plate ranking): 5 (a “5” ranking indicates greater than (45) cfu, i.e., the plate was severely contaminated)
[1]; Dicyandiamide 10,000 ppm, Challenge 3 (2.5%), 24 h
  degree of microbial growth (plate ranking): 5 (a “5” ranking indicates greater than (45) cfu, i.e., the plate was severely contaminated)
[1]; Dicyandiamide 10,000 ppm, Challenge 3 (2.5%), 72 h
  dilution plate count: 4.2 × 10^6
[1]; Table 1, not in combination with BIT
  efficacy of dicyandiamide alone compared to the blank: no significant difference compared to the blank
[2]; Challenge 1 (10%), 24 h
  degree of microbial growth (plate ranking): 5c
[2]; Challenge 1 (10%), 72 h
  degree of microbial growth (plate ranking): 5c
[2]; Challenge 2 (5%), 72 h
  degree of microbial growth (plate ranking): 5c
[2]; Challenge 3 (2.5%), 24 h
  degree of microbial growth (plate ranking): 5c
[2]; Challenge 3 (2.5%), 72 h
  dilution plate count: 2.4 × 10^7

## Cn1sccc1=O [MIT − 50, 2-methyl-4-isothiazolin-3-one]
[3]; MIT 15 ppm as active (MIT-50 30 ppm), 1st challenge, 24
  degree of microbial growth (plate ranking): 5 (a “5” ranking indicates greater than (45) cfu, i.e., the plate was severely contaminated)
[3]; MIT 15 ppm as active (MIT-50 30 ppm), 1st challenge, 72
  degree of microbial growth (plate ranking): 5 (a “5” ranking indicates greater than (45) cfu, i.e., the plate was severely contaminated)
[3]; MIT 15 ppm as active (MIT-50 30 ppm), 2nd challenge, 72
  degree of microbial growth (plate ranking): 5 (a “5” ranking indicates greater than (45) cfu, i.e., the plate was severely contaminated)
[3]; MIT 15 ppm as active (MIT-50 30 ppm), 3rd challenge, 24
  degree of microbial growth (plate ranking): 5 (a “5” ranking indicates greater than (45) cfu, i.e., the plate was severely contaminated)
[3]; MIT 15 ppm as active (MIT-50 30 ppm), 3rd challenge, 72
  degree of microbial growth (plate ranking): 5 (a “5” ranking indicates greater than (45) cfu, i.e., the plate was severely contaminated)
[3]; MIT 20 ppm as active (MIT-50 40 ppm), 1st challenge, 24
  degree of microbial growth (plate ranking): 5 (a “5” ranking indicates greater than (45) cfu, i.e., the plate was severely contaminated)
[3]; MIT 20 ppm as active (MIT-50 40 ppm), 1st challenge, 72
  degree of microbial growth (plate ranking): 5 (a “5” ranking indicates greater than (45) cfu, i.e., the plate was severely contaminated)
[3]; MIT 20 ppm as active (MIT-50 40 ppm), 2nd challenge, 72
  degree of microbial growth (plate ranking): 5 (a “5” ranking indicates greater than (45) cfu, i.e., the plate was severely contaminated)
[3]; MIT 20 ppm as active (MIT-50 40 ppm), 3rd challenge, 24
  degree of microbial growth (plate ranking): 5 (a “5” ranking indicates greater than (45) cfu, i.e., the plate was severely contaminated)
[3]; MIT 20 ppm as active (MIT-50 40 ppm), 3rd challenge, 72
  degree of microbial growth (plate ranking): 5 (a “5” ranking indicates greater than (45) cfu, i.e., the plate was severely contaminated)
[3]; MIT 25 ppm as active (MIT-50 50 ppm), 1st challenge, 24
  degree of microbial growth (plate ranking): 5 (a “5” ranking indicates greater than (45) cfu, i.e., the plate was severely contaminated)
[3]; MIT 25 ppm as active (MIT-50 50 ppm), 1st challenge, 72
  degree of microbial growth (plate ranking): 2 (a “2” ranking indicates six (6) through fifteen (15) cfu, i.e., the plate was lightly contaminated)
[3]; MIT 25 ppm as active (MIT-50 50 ppm), 2nd challenge, 72
  degree of microbial growth (plate ranking): 5 (a “5” ranking indicates greater than (45) cfu, i.e., the plate was severely contaminated)
[3]; MIT 25 ppm as active (MIT-50 50 ppm), 3rd challenge, 24
  degree of microbial growth (plate ranking): 5 (a “5” ranking indicates greater than (45) cfu, i.e., the plate was severely contaminated)
[3]; MIT 25 ppm as active (MIT-50 50 ppm), 3rd challenge, 72
  degree of microbial growth (plate ranking): 5 (a “5” ranking indicates greater than (45) cfu, i.e., the plate was severely contaminated)
[3]; MIT 30 ppm as active (MIT-50 60 ppm)
  passing result of challenge test: MIT − 50 60 ppm (30)*
[3]; MIT 30 ppm as active (MIT-50 60 ppm), 1st challenge, 24
  degree of microbial growth (plate ranking): 5 (a “5” ranking indicates greater than (45) cfu, i.e., the plate was severely contaminated)
[3]; MIT 30 ppm as active (MIT-50 60 ppm), 1st challenge, 72
  degree of microbial growth (plate ranking): 0
[3]; MIT 30 ppm as active (MIT-50 60 ppm), 2nd challenge, 72
  degree of microbial growth (plate ranking): 5 (a “5” ranking indicates greater than (45) cfu, i.e., the plate was severely contaminated)
[3]; MIT 30 ppm as active (MIT-50 60 ppm), 3rd challenge, 24
  degree of microbial growth (plate ranking): 5 (a “5” ranking indicates greater than (45) cfu, i.e., the plate was severely contaminated)
[3]; MIT 30 ppm as active (MIT-50 60 ppm), 3rd challenge, 72
  degree of microbial growth (plate ranking): 0
[3]; MIT 35 ppm as active (MIT-50 70 ppm)
  passing result of challenge test: MIT − 50 70 ppm (35)*
[3]; MIT 35 ppm as active (MIT-50 70 ppm), 1st challenge, 24
  degree of microbial growth (plate ranking): 5 (a “5” ranking indicates greater than (45) cfu, i.e., the plate was severely contaminated)
[3]; MIT 35 ppm as active (MIT-50 70 ppm), 1st challenge, 72
  degree of microbial growth (plate ranking): 0
[3]; MIT 35 ppm as active (MIT-50 70 ppm), 2nd challenge, 72
  degree of microbial growth (plate ranking): 0
[3]; MIT 35 ppm as active (MIT-50 70 ppm), 3rd challenge, 24
  degree of microbial growth (plate ranking): 5 (a “5” ranking indicates greater than (45) cfu, i.e., the plate was severely contaminated)
[3]; MIT 35 ppm as active (MIT-50 70 ppm), 3rd challenge, 72
  degree of microbial growth (plate ranking): 0
[3]; MIT alone, no guanidine enhancer
  MIT concentration giving passing results: ≥ 30 ppm
